Earlier results in patent US6409990B1, “Macromolecular carrier for drug and diagnostic agent delivery” (The Regents of the University of California, priority 1999, dated 2002).

Details: similar time postinjection; Grist TM et al.

For `O=C([O-])CN(CCN(CC(=O)[O-])C[C@H](COP(=O)([O-])OC1CCC(c2ccccc2)(c2ccccc2)CC1)N(CC(=O)[O-])CC(=O)[O-])CC(=O)[O-].[Gd+3].[H+].[H+].[H+]` [MS-325], the “typical CNR in the human aorta” value is listed as 42.
